Measurements published in publication PMC10140166 (The Journal of Biological Chemistry, 2023).
Several values for one entry are separate records, joined by “and”; a condition that tells them apart may be missing. Identical values can stand only once.

Tests used:
HSV-1 = settings: read-out: IC50 against HSV-1; cited from earlier work
PRV [1] = experiment: microbe, parasite or virus in culture; assay type: cell-based, pseudorabies virus; settings: for IC50: Suid alphaherpesvirus 1, HeLa, 24 h
HCMV = settings: read-out: IC50 against HCMV; cited from earlier work
enterovirus 71 = settings: read-out: IC50 against enterovirus 71; cited from earlier work
in vitro = settings: human
HSV-2 = settings: read-out: IC50 against HSV-2; cited from earlier work
PRV [2] = assay type: cell-based, pseudorabies virus

In the case of `Oc1cccc2c1[nH]c1c(C3=C[C@@]4(O)CC/C=C\CCCCN5CC[C@@H]3[C@]3(C[C@@H]6/C=C\CCCCN6[C@H]34)C5)nccc12` [8-hydroxymanzamine A], the IC50 (HSV-1) is listed as 3700 nM.
With `COc1cc(N2CCN(C)CC2)ccc1Nc1nccc(-c2cn(C)c3cnccc23)n1` [AZ191] the “reduction of production of infectious virus particles vs DMSO” value (PRV [1]) was 1.1 Log and the “cytotoxicity / cell viability at the concentration used” value (shortened to “cytotoxicity / cell viability”) (DF-1 cells) was “did not affect cell viability”.
For `Nc1nc2c(ncn2COCCO)c(=O)[nH]1` [Acyclovir], the “reduction (positive control), primary screening” value (PRV [1]) was 98% and the IC50 (PRV [1]) was 2810 ± 300 nM.
For `COc1ccc2c(c1)[nH]c1c(C)nccc12` [Compound 2, harmine], the “inhibitory rate (reduction vs DMSO-treated cells), primary screening” value (PRV [1]) was greater than 90%, the “reduction of production of infectious virus particles vs DMSO” value (PRV [1]) was 2.3 Log and the IC50 (PRV [1]) was 1190 ± 90 nM. For the same compound, the “cytotoxicity / cell viability” value (DF-1 cells) was “without cytotoxicity”, the IC50 (HCMV) was 710 ± 19 nM and the IC50 (enterovirus 71) was 10000 ± 2500 nM. The IC50 (HSV-1) was 4560 nM, the CC50 (in vitro) was greater than 30000 nM and the IC50 (HSV-2) was 1470 nM.
In the case of `COc1ccc2c3ccnc(C)c3n(C)c2c1` [Compound 3, 9-methyl-harmine], the “inhibitory rate (reduction vs DMSO-treated cells), primary screening” value (PRV [1]) is reported as > 90% and > 99%, the IC50 (PRV [1]) is reported as 520 ± 40 nM and the CC50 (in vitro) is reported as greater than 30000 nM.
In the case of `CCn1c2ccccc2c2cc(Nc3ccnc(NCCCN4CCOCC4)n3)ccc21` [EHop-016], the “cytotoxicity / cell viability” value (DF-1 cells) is reported as “without cytotoxicity” and the “viral protein load (Western blot)” value (PRV [2]) is reported as “reduced the viral protein load”.
For `CCN(c1nc(N)c(C(=O)N=C(N)N)nc1Cl)C(C)C` [EIPA, 5-[N-ethyl-N-isopropyl] amiloride], the “cytotoxicity / cell viability” value (DF-1 cells) was “without cytotoxicity” and the “viral protein load (US9 relative to β-actin, densitometry)” value (PRV [2]) was 0.21 ± 0.01.
In the case of ML-141, the “cytotoxicity / cell viability” value (DF-1 cells) is reported as “without cytotoxicity” and the “viral protein load (Western blot)” value (PRV [2]) is reported as “reduced the viral protein load”.
For Mazamine A, the IC50 (HSV-1) is listed as 1000 nM.
For manzamine A monohydrochloride, the IC50 (HSV-1) is listed as 100 nM.
In the case of manzamine A monotartrate, the IC50 (HSV-1) is listed as 100 nM.
